Columns and labels:
[1] = tested on: healthy recreational polydrug users; assay: Drug Liking VAS, human abuse potential study; format: in vivo; details: for Drug Liking VAS Emax LS mean difference: mixed-effect model
[2] = tested on: healthy recreational polydrug users; assay: Global retrospective assessments at 8 h postdose; details: pentazocine 0.5 mg/kg i.v.
[3] = Plasma pharmacokinetics after single i.v. dose; details: pentazocine 0.5 mg/kg single i.v., n = 40
[4] = tested on: healthy recreational polydrug users; assay: Treatment-emergent adverse events; format: in vivo, human; details: pentazocine 0.5 mg/kg single i.v., n = 40; safety population
[5] = tested on: healthy recreational polydrug users; assay: Drug effect questionnaire; details: pentazocine 0.5 mg/kg and difelikefalin 5 and 15 mcg/kg i.v.; unipolar 0-100 VAS
[6] = tested on: healthy recreational polydrug users; assay: Drug Similarity VAS at 8 h postdose; format: in vivo, human; details: pentazocine 0.5 mg/kg i.v.
[7] = tested on: healthy recreational polydrug users; assay: Pupillometry; format: in vivo, human; details: pentazocine 0.5 mg/kg i.v.; 8-h postdose period

CC(C)=CCN1CCC2(C)c3cc(O)ccc3CC1C2C (centres unmarked) [Pentazocine, pentazocine]
Drug Liking VAS Emax LS mean difference ([1]; pentazocine 0.5 mg/kg i.v. vs difelikefalin 5 mcg/kg i.v., completer set N = 39): 21.95
Drug Liking VAS Emax LS mean difference ([1]; pentazocine 0.5 mg/kg i.v. vs difelikefalin 15 mcg/kg i.v., completer set N = 39): 20.92
Drug Liking VAS Emax LS mean difference ([1]; pentazocine 0.5 mg/kg i.v. vs placebo, completer set N = 39): 35.50
Mean Drug Liking VAS scores ([1]; pentazocine 0.5 mg/kg i.v., over the first 3 h): > 60 points
Drug Liking VAS Emax, median (min, max) ([1]; pentazocine 0.5 mg/kg single i.v., completer set N = 39): 91.0 (49, 100)
PVAQ median value ([2]; 8 h postdose): 10.00 $
PVAQ mean value ([2]; 8 h postdose, $0-$100 scale): 9.60 $
Mean 8-h score, Overall Drug Liking VAS ([2]; bipolar VAS, 50 neutral): greater than or equal to 69 points
Mean 8-h score, Take Drug Again VAS ([2]; bipolar VAS, 50 neutral): greater than or equal to 69 points
Cmax ([3]; human plasma, tandem MS, mean (SD)): 296.0 (197.7) ng/ml
AUC0-t ([3]; mean (SD)): 487.4 (133.5) h*ng/ml
V d ([3]; mean (SD)): 4280 (1079.8) ml/kg
t 1/2 ([3]; mean (SD)): 3.7 (1.2) h
Tmax ([3]; median [range]): 0.1 [0.1, 0.8] h
Any TEAE, subjects [4]: 13 (32.5) n (%)
Any serious TEAE, subjects [4]: 0 n (%)
Any severe TEAE, subjects [4]: 0 n (%)
Discontinuation due to TEAE, subjects [4]: 1 (2.5) n (%)
TEAE Abdominal pain upper, subjects [4]: 0 n (%)
TEAE Abdominal pain, subjects [4]: 0 n (%)
TEAE Chills, subjects [4]: 2 (5.0) n (%)
TEAE Constipation, subjects [4]: 1 (2.5) n (%)
TEAE Dizziness, subjects [4]: 2 (5.0) n (%)
TEAE Dyspepsia, subjects [4]: 0 n (%)
TEAE Groin pain, subjects [4]: 0 n (%)
TEAE Headache, subjects [4]: 4 (10.0) n (%)
TEAE Hot flush, subjects [4]: 3 (7.5) n (%)
TEAE Hypoesthesia, subjects [4]: 1 (2.5) n (%)
TEAE Nausea, subjects [4]: 5 (12.5) n (%)
TEAE Vomiting, subjects [4]: 5 (12.5) n (%)
Bad Effects VAS Emax, scores overall [5]: < 20 points
Drug Similarity VAS, median, cannabinoids, hallucinogens, or stimulants ([6]; unipolar 0-100): ≤ 2.0
Drug Similarity VAS, median, benzodiazepines ([6]; unipolar 0-100, n=8): 22.5
Drug Similarity VAS, median, opioids ([6]; unipolar 0-100, n=38): 65.0
mean Emax reduction in pupil diameter from baseline (predose) [7]: 2.5 mm

Source: paper PMC8841457 (Clinical and Translational Science, 2021)
